The test system of the first assay is HEK293 SuperTOPFlash reporter cells, Wnt promoter. The assay is described as follows: HEK CELL Wnt Assay (luciferase reporter). It counts as cell-based. As to conditions: @ >10,000 nM. The method, then:
In order to determine the effect of the compounds of Formula (I) on Wnt inhibition, an in vitro assay using HEK293 SuperTOPFlash reporter cells, with the Wnt promoter driving a luciferase reporter gene, were utilized. 40,000 HEK293 SuperTOPFlash reporter cells were seeded, per well, in a 48 well plate for 24 hours, prior to administration of serial dilutions of the compound of Formula (I) to individual wells. Serial dilutions ranging from […] to 1 nM of the compound of Formula (I) were added with or without 50 ng/mL Wnt3a (Time Biosciences) and allowed to incubate with the reporter cells for 18 hours. Reporter cells with no treatment were used as negative control.
`N#Cc1ccc2c(c1)[nH]c(=O)n2[C@H]1C[C@H](c2nc3c(c(=O)[nH]2)CSCC3)C1` [Compound 2, 2-oxo-1-((1r,3r)-3-(4-oxo-3,5,7,8-tetrahydro-4H-thiopyrano[4,3-d]pyrimidin-2-yl)cyclobutyl)-2,3-dihydro-1H-benzo[d]imidazole-5-carbonitrile]: the “HEK CELL Wnt inhibition” value is on record as 60% inhibition @ >10,000 nM.

The assay is the same for the next values; noted with them: serial dilutions, with or without 50 ng/mL Wnt3a; 18 h.
In general, IC50 refers to the concentration that gives 50% inhibition. Higher therefore signals weaker potency in that assay. `O=c1[nH]c(-c2ccc(-c3ccc(Br)cc3)cc2)nc2c1CSCC2` registered an IC50 of 100 nM.

The target in the next assay is T1, Tankyrase 2 (TNKS2) (Homo sapiens, UniProt Q9H2K2).
T1 sequence (Q9H2K2 1-1166): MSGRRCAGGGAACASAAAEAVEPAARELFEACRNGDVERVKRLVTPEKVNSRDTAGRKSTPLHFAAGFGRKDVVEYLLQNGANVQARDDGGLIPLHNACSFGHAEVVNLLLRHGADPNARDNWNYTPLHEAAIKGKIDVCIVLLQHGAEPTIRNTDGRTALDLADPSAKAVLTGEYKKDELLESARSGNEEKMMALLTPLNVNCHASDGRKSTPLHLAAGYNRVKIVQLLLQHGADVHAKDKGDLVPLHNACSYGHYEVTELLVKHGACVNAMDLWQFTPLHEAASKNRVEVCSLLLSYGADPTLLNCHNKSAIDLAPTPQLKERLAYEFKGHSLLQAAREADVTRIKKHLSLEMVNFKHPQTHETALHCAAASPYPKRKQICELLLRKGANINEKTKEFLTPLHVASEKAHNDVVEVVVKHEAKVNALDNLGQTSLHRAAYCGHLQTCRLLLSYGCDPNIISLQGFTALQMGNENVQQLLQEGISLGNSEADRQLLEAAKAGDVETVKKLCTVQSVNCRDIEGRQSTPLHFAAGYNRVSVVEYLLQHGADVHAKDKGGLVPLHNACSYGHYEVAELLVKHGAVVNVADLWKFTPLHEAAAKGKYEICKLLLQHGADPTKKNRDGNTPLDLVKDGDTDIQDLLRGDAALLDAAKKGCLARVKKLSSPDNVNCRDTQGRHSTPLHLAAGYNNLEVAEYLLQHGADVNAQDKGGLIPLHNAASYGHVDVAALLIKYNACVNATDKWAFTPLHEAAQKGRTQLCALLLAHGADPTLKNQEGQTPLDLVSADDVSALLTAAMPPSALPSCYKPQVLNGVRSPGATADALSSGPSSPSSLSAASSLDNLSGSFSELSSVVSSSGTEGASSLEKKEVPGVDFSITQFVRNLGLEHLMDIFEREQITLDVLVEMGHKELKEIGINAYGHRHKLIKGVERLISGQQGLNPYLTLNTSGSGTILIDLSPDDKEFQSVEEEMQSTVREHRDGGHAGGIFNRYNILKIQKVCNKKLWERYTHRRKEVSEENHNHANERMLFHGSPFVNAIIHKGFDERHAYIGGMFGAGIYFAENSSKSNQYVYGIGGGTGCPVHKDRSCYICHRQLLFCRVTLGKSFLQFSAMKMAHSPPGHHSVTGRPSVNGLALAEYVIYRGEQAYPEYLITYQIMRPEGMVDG
Nature of the assay: TNK2 Binding Assay (Tankyrase 2 ribosylation, chemiluminescence). Format: biochemical.
Settings: not given
Here is the method:
Tankyrase 2 assay (n=3) was performed with the following steps: step 1, coating a 96-well plate with 50 μL/well of histone solution; step 2, conducting ribosylation reaction; and step 3, detection.
Step 1: Coating a 96-Well Plate with 50 μL/Well of Histone Solution.
A 5× histone mixture was diluted 1:5 with PBS to make a 1× histone in PBS mixture. 50 μL of the histone mixture was added to each well and incubated at 4° C. overnight. The plate was washed three times using 200 μL PBST buffer (1×PBS containing 0.05% Tween*20 (polysorbate 20) per well. The plate was tapped onto a clean paper towel to remove the liquid. The wells were blocked by adding 200 μL of blocking buffer 3 to each well. The plate was incubated at room temperature for at least 90 minutes. The plate was washed three times with 200 μL PBST buffer. The plate was tapped onto a clean paper towel to remove the liquid.
A fresh solution of 10 mM DTT in water was prepared.
A master mix was prepared and delivered to each well (25 μL/well). Master mix delivered to each well: (2.5 μL of 10×PARP assay buffer (purchased from BPS Bioscience)+2.5 μL of PARP substrate mixture 2+17.5 μL of water+2.5 μL of 10 mM fresh DTT). The concentration of DTT in the master mix was 1 mM. 25 μL of master mix was added to each well.
1×PARP buffer with DTT was prepared. 10×PARP assay buffer was diluted to 1×PARP assay buffer containing DTT by adding 1 volume of 10×PARP assay buffer+1 volume of 10 mM DTT+8 volumes of water. The concentration of DTT in the 1×PARP assay buffer was 1 mM.
5 μL of a test inhibitor was added to each well labeled as “Test Inhibitor.” For the “Positive Control,” the PARP inhibitor, XAV939, was used. For the negative control, no inhibitor is added to the assay mix.
The Tankyrase 2 (TNKS2) enzyme on ice was thawed. The tube containing the enzyme was spun briefly to recover the full content of the tube. The amount of TNKS2 enzyme required for the assay was calculated and the enzyme was diluted to 0.5 ng/μL with 1×PARP assay buffer with DTT. 16) The final concentration of TNKS2 enzyme in the assay was 2 nM. The reaction was initiated by adding 10 μL of diluted TNKS2 enzyme to each well designated “Positive Control” and “Test Inhibitor.” To each well designated as “Blank,” 10 μL of 1×PARP assay buffer with DTT was added. The plate was incubated at room temperature for 1 hour. The plate was washed three times with 100 μL of PBST buffer and the plate was tapped onto a clean paper towel.
1) Streptavidin-HRP was diluted 1:50 in Blocking buffer (purchased from BPS Bioscience) 3.50 μL of diluted Streptavidin-RP was added to each well and incubated for 30 minutes at room temperature. The plate was washed three times with 100 μL of PBST buffer and tapped onto a clean paper towel. Just before use, 1 volume of ELISA ECL Substrate A and 1 volume of ELISA ECL Substrate B were mixed on ice; and 100 μL was added to each well. Immediately, the plate was read in a luminometer or microtiter-plate reader capable of reading chemiluminescence. The “Blank” value was subtracted from all other values.
Take `CC(C)(OCCO)c1c(F)cc(-c2nc3c(c(=O)[nH]2)CSCC3)cc1F` [Compound 15, 2-(3,5-difluoro-4-(2-(2-hydroxyethoxy)propan-2-yl)phenyl)-3,5,7,8-tetrahydro-4H-thiopyrano[4,3-d]pyrimidin-4-one]: the IC50 came out at 90 nM. `O=c1[nH]c(-c2ccc(-c3ccc(Br)nc3)c(F)c2)nc2c1CSCC2` [Compound 20, 2-(4-(6-bromopyridin-3-yl)-3-fluorophenyl)-3,5,7,8-tetrahydro-4H-thiopyrano[4,3-d]pyrimidin-4-one] came in with a half-maximal inhibitory concentration (IC50) of 4 nM. On the same count and under the same terms, the value for `O=c1[nH]c(-c2ccc(-c3ccnc(Br)c3)cc2)nc2c1CSCC2` [Compound 23, 2-(4-(2-bromopyridin-4-yl)phenyl)-3,5,7,8-tetrahydro-4H-thiopyrano[4,3-d]pyrimidin-4-one] was 14 nM; that for `O=c1[nH]c(-c2ccc(B(O)O)c(O)c2)nc2c1CSCC2` [Compound 30, (2-hydroxy-4-(4-oxo-3,5,7,8-tetrahydro-4H-thiopyrano[4,3-d]pyrimidin-2-yl)phenyl)boronic acid] was 20 nM. On the same count and under the same terms, the value for `O=c1[nH]c(-c2ccc(B(O)O)cc2O)nc2c1CSCC2` [Compound 31, (3-hydroxy-4-(4-oxo-3,5,7,8-tetrahydro-4H-thiopyrano[4,3-d]pyrimidin-2-yl)phenyl)boronic acid] was 3530 nM. `COc1cc(-c2nc3c(c(=O)[nH]2)CSCC3)ccc1B(O)O` [Compound 32, (2-methoxy-4-(4-oxo-3,5,7,8-tetrahydro-4H-thiopyrano[4,3-d]pyrimidin-2-yl)phenyl)boronic acid] had an IC50 of 111 nM. On the same count and under the same terms, as for `COC(=O)NCCOC(C)(C)c1ccc(-c2nc3c(c(=O)[nH]2)CSCC3)cc1O` [Compound 33, methyl (2-((2-(2-hydroxy-4-(4-oxo-3,5,7,8-tetrahydro-4H-thiopyrano[4,3-d]pyrimidin-2-yl)phenyl)propan-2-yl)oxy)ethyl)carbamate], the figure is 12 nM; as for `COC(=O)NCCOC(C)(C)c1ccc(-c2nc3c(c(=O)[nH]2)CSCC3)cc1OC` [Compound 34, methyl (2-((2-(2-methoxy-4-(4-oxo-3,5,7,8-tetrahydro-4H-thiopyrano[4,3-d]pyrimidin-2-yl)phenyl)propan-2-yl)oxy)ethyl)carbamate], 164 nM. As to `COC(=O)NCCOC(C)(C)c1ccc(-c2nc3c(c(=O)[nH]2)CSCC3)cc1C` [Compound 35, methyl (2-((2-(2-methyl-4-(4-oxo-3,5,7,8-tetrahydro-4H-thiopyrano[4,3-d]pyrimidin-2-yl)phenyl)propan-2-yl)oxy)ethyl)carbamate], the half-inhibitory concentration (IC50) was found to be 13 nM. Same read-out and setting: as for `N#Cc1cc(-c2ccc(B(O)O)cc2)ccc1-c1nc2c(c(=O)[nH]1)CSCC2` [Compound 36, (3′-cyano-4′-(4-oxo-3,5,7,8-tetrahydro-4H-thiopyrano[4,3-d]pyrimidin-2-yl)-[1,1′-biphenyl]-4-yl)boronic acid], the figure is 29 nM. For the compound `N#Cc1cc(B(O)O)ccc1-c1nc2c(c(=O)[nH]1)CSCC2` [Compound 37, (3-cyano-4-(4-oxo-3,5,7,8-tetrahydro-4H-thiopyrano[4,3-d]pyrimidin-2-yl)phenyl)boronic acid], the IC50 worked out at 16 nM. Same read-out and setting: as for `COC(=O)NCCOC(C)(C)c1ccc(-c2nc3c(c(=O)[nH]2)CSCC3)c(C#N)c1` [Compound 38, methyl (2-((2-(3-cyano-4-(4-oxo-3,5,7,8-tetrahydro-4H-thiopyrano[4,3-d]pyrimidin-2-yl)phenyl)propan-2-yl)oxy)ethyl)carbamate], the figure is 72 nM; as for `COC(=O)NCCOC(C)(C)c1ccc(-c2nc3c(c(=O)[nH]2)CSCC3)cc1C#N` [Compound 39, methyl (2-((2-(2-cyano-4-(4-oxo-3,5,7,8-tetrahydro-4H-thiopyrano[4,3-d]pyrimidin-2-yl)phenyl)propan-2-yl)oxy)ethyl)carbamate], 650 nM.

In turn, `O=c1[nH]c(-c2ccc(B(O)O)cc2Cl)nc2c1CSCC2` [Compound 40, (3-chloro-4-(4-oxo-3,5,7,8-tetrahydro-4H-thiopyrano[4,3-d]pyrimidin-2-yl)phenyl)boronic acid] showed an IC50 of 443 nM. On the same count and under the same terms, as for `O=c1[nH]c(N2CCN(c3ccc(B(O)O)cc3)CC2)nc2c1CSCC2` [Compound 41, (4-(4-(4-oxo-3,5,7,8-tetrahydro-4H-thiopyrano[4,3-d]pyrimidin-2-yl)piperazin-1-yl)phenyl)boronic acid], the figure is 8.7 nM; as for `O=c1[nH]c(N2CCN(c3c(F)cc(OCCO)cc3F)CC2)nc2c1CSCC2` [Compound 42, 2-(4-(2,6-difluoro-4-(2-hydroxyethoxy)phenyl)piperazin-1-yl)-3,5,7,8-tetrahydro-4H-thiopyrano[4,3-d]pyrimidin-4-one], 9.7 nM; as for `CC1(C)OB(O)c2ccc(-c3nc4c(c(=O)[nH]3)CSCC4)cc21` [Compound 44, 2-(1-hydroxy-3,3-dimethyl-1,3-dihydrobenzo[c][1,2]oxaborol-5-yl)-3,5,7,8-tetrahydro-4H-thiopyrano[4,3-d]pyrimidin-4-one], 630 nM.

For the origin of these results see patent US20260356860A1, “2-SUBSTITUTED 3,4A,5,7,8,8A-HEXAHYDRO-4H-THIOPYRANO[4,3-DJPYRIMIDIN-4-ONES FOR WOUND TREATMENT” (priority 2022, published 2026).
